{"source": "PubChem BioAssay (NCI)", "experiment_in_all_cases": "DTP human tumour cell line panel, 48 h", "key": {"[1]": {"tested_on": "MDA-MB-231 breast"}, "[2]": {"tested_on": "HOP-62 NSCLC"}, "[3]": {"tested_on": "RXF 393 renal"}, "[4]": {"tested_on": "NCI-H23 lung"}, "[5]": {"tested_on": "SK-OV-3 ovarian"}, "[6]": {"tested_on": "U251 CNS"}, "[7]": {"tested_on": "ACHN renal"}, "[8]": {"tested_on": "MOLT-4 leukemia"}, "[9]": {"tested_on": "EKVX NSCLC"}, "[10]": {"tested_on": "IGROV1 ovarian"}, "[11]": {"tested_on": "A498 renal"}, "[12]": {"tested_on": "HCC-2998 colon"}, "[13]": {"tested_on": "SK-MEL-2 melanoma"}}, "note": "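Method: 48-hour compound exposure of cells in 96-well plates, five concentrations, linear interpolation of endpoints. The concentration for full growth arrest is given as TGI.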"}
{"smiles": "O=C(CSCC(=O)N/N=C\\c1cccc([N+](=O)[O-])c1)N/N=C\\c1cccc([N+](=O)[O-])c1", "values": [{"measurement": "TGI", "setting": "[1]", "result": 53.8, "unit": "µM"}, {"measurement": "TGI", "setting": "[2]", "result": 16.3, "unit": "µM"}, {"measurement": "TGI", "setting": "[3]", "result": "> 100", "unit": "µM"}, {"measurement": "TGI", "setting": "[4]", "result": 31.1, "unit": "µM"}, {"measurement": "TGI", "setting": "[5]", "result": "> 100", "unit": "µM"}, {"measurement": "TGI", "setting": "[6]", "result": 32.4, "unit": "µM"}, {"measurement": "TGI", "setting": "[7]", "result": 33.7, "unit": "µM"}, {"measurement": "TGI", "setting": "[8]", "result": "> 100", "unit": "µM"}, {"measurement": "TGI", "setting": "[9]", "result": "> 100", "unit": "µM"}, {"measurement": "TGI", "setting": "[10]", "result": 68.7, "unit": "µM"}, {"measurement": "TGI", "setting": "[11]", "result": "> 100", "unit": "µM"}, {"measurement": "TGI", "setting": "[12]", "result": "> 100", "unit": "µM"}, {"measurement": "TGI", "setting": "[13]", "result": "> 100", "unit": "µM"}]}
{"smiles": "CC(C)=CCCC(C)CCOS(=O)C(F)(F)F", "note": "(stereo unspecified)", "values": [{"measurement": "TGI", "setting": "[1]", "result": 61.4, "unit": "µM"}, {"measurement": "TGI", "setting": "[2]", "result": "> 100", "unit": "µM"}, {"measurement": "TGI", "setting": "[3]", "result": 7.57, "unit": "µM"}, {"measurement": "TGI", "setting": "[4]", "result": 14, "unit": "µM"}, {"measurement": "TGI", "setting": "[5]", "result": "> 100", "unit": "µM"}, {"measurement": "TGI", "setting": "[6]", "result": 22.9, "unit": "µM"}, {"measurement": "TGI", "setting": "[7]", "result": 34.4, "unit": "µM"}, {"measurement": "TGI", "setting": "[8]", "result": 24.2, "unit": "µM"}, {"measurement": "TGI", "setting": "[9]", "result": 30.2, "unit": "µM"}, {"measurement": "TGI", "setting": "[10]", "result": 74.6, "unit": "µM"}, {"measurement": "TGI", "setting": "[11]", "result": 63.7, "unit": "µM"}, {"measurement": "TGI", "setting": "[12]", "result": 27.5, "unit": "µM"}, {"measurement": "TGI", "setting": "[13]", "result": 36.5, "unit": "µM"}]}
